Test in all cases: Affinity chromatography with NFX-beads and mass spectrometry
Format in all cases: binding
Conditions in all cases: spectral counts, NFX coupled beads vs beads alone, human fibroblast extracts

The target in assay [1] is T1, Calcium/calmodulin-dependent protein kinase type II subunit delta (CAMK2D) (Homo sapiens, UniProt Q13557).
T1 construct: Protein extracts from human fibroblasts were incubated with magnetic beads; endogenous in cells; host or cells: human fibroblast lysate
On the procedure: (§1) Fibroblasts were trypsinized and washed with PBS 1× then incubated in lysis buffer on ice during 20 minutes (Lysis buffer: Tris-HCl pH 7.5 50 mM, EDTA 2 mM, Triton X-100 0.1% supplemented with anti-protease and anti-phosphatase (Complete-Mini™—Roche). After centrifugation 15 minutes, 13 000 rpm at 4° C., supernatant was conserved and the protein concentration was determined using the Pierce BCA assay kit (Thermo Fisher Scientific).
(§2) 10 μL of magnetic beads and NFX-beads were washed three times in Bead buffer before to be resuspended 100 μL of Bead buffer (Bead buffer: Tris-HCl pH 7.5 50 mM, NaCl 150 mM, Triton X-100 0.1%, supplemented with anti-protease and anti-phosphatase (Complete-Mini™—Roche)) thanks to a magnetic rack (DynaMag-2 Ref 12321D Life Technologies). 800 μg of proteins were mixed with 100 μL of diluted beads and the final volume was set to 800 μL with Bead buffer. The proteins and the beads were incubated 30 minutes with rotation in a cold room. Using a magnetic rack, the beads were separated from the protein extract and washed three time with Bead buffer before to be resuspended in 75 μL of Laemmli2X. Laemmli with beads was put 5 minutes at 95° C. to eluate the proteins and the beads were discarded using a magnetic rack. 35 μL of the eluted proteins were subjected to SDS-PAGE and silver coloration (ProteoSilver™ Silver Stain Kit—Sigma Aldrich). Bands of interest were extracted from the gel and subjected to mass spectrometry.
(§3) Mass spectrometric identification and quantification of the pulled down proteins were performed as previously described (Shrivastava et al., EMBO, 2019, 38:e99871). The raw data were cleaned using the following pathway. First, only the proteins found to interact with the NFX coupled beads in the three replicates were kept for further analysis. […] The final proteins were then classified based on the fold chance and the p-value.
(§4) Identification of the NFX intracellular targets is a crucial step in understanding its mechanisms of action and to be able to improve its efficiency on a rational basis. To purify NFX-binding proteins, affinity chromatography purification was performed using magnetic beads. Protein extracts from human fibroblasts were incubated with magnetic beads alone or to which NFX has been covalently coupled (Scheme 1). Eluted fractions were subjected to SDS-PAGE electrophoresis and silver staining (FIG. 9A). The pattern was clearly different between eluted proteins from NFX-beads compared to those eluted form beads alone with 13 bands either appeared or were of a higher intensity with the NFX-beads (FIG. 9B). Excised bands were subjected to proteolytic digestion and mass spectrometry.

In assay [2] the target is T2, Kinesin-1 heavy chain (KIF5B) (Homo sapiens, UniProt P33176).
T2 construct: Protein extracts from human fibroblasts were incubated with magnetic beads; endogenous in cells; host or cells: human fibroblast lysate
T2 sequence (P33176 1-963): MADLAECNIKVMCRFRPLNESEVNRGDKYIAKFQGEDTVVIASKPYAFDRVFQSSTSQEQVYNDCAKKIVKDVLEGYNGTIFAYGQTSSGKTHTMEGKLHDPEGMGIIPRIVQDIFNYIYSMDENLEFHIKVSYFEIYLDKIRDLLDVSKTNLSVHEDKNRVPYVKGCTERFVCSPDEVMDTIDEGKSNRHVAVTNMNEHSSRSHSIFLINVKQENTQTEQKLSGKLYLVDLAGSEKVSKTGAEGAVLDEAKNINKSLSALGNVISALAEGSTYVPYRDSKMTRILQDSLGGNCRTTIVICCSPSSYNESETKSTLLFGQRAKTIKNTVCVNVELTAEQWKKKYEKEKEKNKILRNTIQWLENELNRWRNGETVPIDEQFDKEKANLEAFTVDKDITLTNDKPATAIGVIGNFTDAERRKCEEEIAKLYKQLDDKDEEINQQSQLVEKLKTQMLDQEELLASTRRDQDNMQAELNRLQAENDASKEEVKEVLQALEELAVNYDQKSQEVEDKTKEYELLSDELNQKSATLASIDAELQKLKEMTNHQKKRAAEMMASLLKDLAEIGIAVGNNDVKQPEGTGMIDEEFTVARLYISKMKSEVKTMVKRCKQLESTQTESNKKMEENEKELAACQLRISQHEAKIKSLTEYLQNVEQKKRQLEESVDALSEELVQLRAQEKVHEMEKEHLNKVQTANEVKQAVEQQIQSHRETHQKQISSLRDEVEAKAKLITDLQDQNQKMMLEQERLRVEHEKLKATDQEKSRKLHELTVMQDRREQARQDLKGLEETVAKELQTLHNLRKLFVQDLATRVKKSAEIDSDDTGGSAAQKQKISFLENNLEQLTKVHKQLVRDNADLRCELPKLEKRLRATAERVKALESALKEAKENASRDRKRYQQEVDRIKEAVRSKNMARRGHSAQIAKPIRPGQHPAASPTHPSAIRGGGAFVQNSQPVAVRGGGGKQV
The protocol: as §1, §2, §3, §4

Assay [3] deals with T3, ARF GTPase-activating protein GIT2 (Homo sapiens, UniProt Q14161).
T3 construct: Protein extracts from human fibroblasts were incubated with magnetic beads; endogenous in cells; host or cells: human fibroblast lysate
T3 sequence (Q14161 1-759): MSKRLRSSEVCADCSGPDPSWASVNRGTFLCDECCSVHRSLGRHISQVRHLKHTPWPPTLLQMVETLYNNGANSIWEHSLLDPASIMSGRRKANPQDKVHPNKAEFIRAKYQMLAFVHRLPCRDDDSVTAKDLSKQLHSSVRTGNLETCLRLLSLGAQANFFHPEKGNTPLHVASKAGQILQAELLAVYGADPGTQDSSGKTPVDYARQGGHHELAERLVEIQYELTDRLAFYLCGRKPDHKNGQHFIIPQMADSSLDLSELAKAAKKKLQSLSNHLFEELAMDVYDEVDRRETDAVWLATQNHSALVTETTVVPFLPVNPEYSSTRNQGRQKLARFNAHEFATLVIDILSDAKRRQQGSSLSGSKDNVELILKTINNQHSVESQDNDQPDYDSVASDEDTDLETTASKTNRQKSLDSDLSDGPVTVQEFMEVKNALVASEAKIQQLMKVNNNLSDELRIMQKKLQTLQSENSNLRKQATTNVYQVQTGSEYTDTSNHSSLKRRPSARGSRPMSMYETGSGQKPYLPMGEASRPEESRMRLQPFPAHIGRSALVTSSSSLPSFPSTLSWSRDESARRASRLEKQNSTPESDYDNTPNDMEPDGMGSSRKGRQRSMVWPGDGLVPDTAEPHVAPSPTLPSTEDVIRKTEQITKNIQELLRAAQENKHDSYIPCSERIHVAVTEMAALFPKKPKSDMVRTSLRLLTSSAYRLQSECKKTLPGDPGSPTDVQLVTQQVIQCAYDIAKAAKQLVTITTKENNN
On the procedure:
as §1, §2, §3, §4

T1 sequence (Q13557 whole entry): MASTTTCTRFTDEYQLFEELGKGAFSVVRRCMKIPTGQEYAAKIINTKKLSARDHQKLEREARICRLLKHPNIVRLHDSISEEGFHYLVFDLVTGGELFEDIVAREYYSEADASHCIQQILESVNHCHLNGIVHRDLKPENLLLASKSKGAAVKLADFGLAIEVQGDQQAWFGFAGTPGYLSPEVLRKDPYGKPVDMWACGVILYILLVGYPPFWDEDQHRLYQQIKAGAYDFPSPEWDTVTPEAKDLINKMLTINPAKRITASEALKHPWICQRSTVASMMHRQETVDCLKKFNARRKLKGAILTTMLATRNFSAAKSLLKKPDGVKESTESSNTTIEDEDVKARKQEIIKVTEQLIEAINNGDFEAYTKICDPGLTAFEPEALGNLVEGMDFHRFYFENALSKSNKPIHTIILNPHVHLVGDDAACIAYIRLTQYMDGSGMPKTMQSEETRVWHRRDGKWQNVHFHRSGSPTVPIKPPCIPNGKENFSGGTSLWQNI

`O=C(N/N=C/c1ccc([N+](=O)[O-])o1)c1ccc(O)cc1` [NFX, (E)-4-hydroxy-N′-((5-nitrofuran-2-yl)methylene)benzohydrazide]: the Fold change is listed as 803.33 in assay [1], 121.67 in assay [2] and 433.33 in assay [3].

Source of the values: US20250025439A1, “DERIVATIVES OF NIFUROXAZIDE FOR USE IN THE TREATMENT OF MITOCHONDRIAL DISORDERS AND NEURODEGENERATIVE DISEASES” (priority 2021, published 2025).
